# Experimental data taken from US20240247080A1, “GLP1/GIP/NPY2 RECEPTOR TRIPLE AGONISTS” (Boehringer Ingelheim International GmbH, priority 2022, published 2024).
# Like-named read-outs stand apart in the source and are kept apart here. Starred links: 1 amine or outer side, 2 acyl side, 3 side chain; linkers in the order of their positions; H or OH if unused. Non-standard residues stand in square brackets, D forms with d. Groups on a side chain read outwards from the residue. *: point of attachment. C20 diacid = O=C(O)CCCCCCCCCCCCCCCCCCC(=O)*; γGlu = O=C(O)[C@H](CCC(=O)[*:2])N[*:1]; εLys = N[C@@H](CCCCN[*:1])C(=O)[*:2]; hArg = N=C(N)NCCCC[C@H](N)C(=O)O; Aib = CC(C)(N)C(=O)O
# Assays:
# Format in all cases: cell-based
# Details in all cases: CreLuc reporter gene assay
# [1] = target: T1, hNPY2R (Homo sapiens, UniProt P49146); experiment: hNPY2R CreLuc reporter gene assay in 0.5% and 100% plasma
# T1 construct: expressed in transfected cells; host or cells: HEK-293 cells carrying a CRE-luciferase reporter gene
# T1 sequence (P49146 1-381): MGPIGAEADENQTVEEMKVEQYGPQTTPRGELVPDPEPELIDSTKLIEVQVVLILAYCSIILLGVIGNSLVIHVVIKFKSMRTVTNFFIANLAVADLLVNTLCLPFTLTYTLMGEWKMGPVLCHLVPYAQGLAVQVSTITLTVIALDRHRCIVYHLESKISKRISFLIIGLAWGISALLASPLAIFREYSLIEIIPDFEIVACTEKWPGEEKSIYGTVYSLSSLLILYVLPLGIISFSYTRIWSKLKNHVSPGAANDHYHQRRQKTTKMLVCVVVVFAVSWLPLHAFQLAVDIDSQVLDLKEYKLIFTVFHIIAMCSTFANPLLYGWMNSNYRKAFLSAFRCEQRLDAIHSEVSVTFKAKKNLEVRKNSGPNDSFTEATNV
# Outline: (§1)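 HEK cells (GLP-1R, NPY2R) or CHO cells (GIPR) carrying a CRE-luciferase reporter, incubated 4 h at 37 °C with peptides in HBSS/20 mM HEPES pH 7.4 plus 0.5% human plasma, or in 100% plasma. Luminescence read; EC50 from 8-point variable-slope sigmoid fits.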
# [2] = target: T2, hGIPR (Homo sapiens, UniProt P48546); experiment: hGIPR CreLuc reporter gene assay in 0.5% and 100% plasma
# T2 construct: expressed in transfected cells; host or cells: CHO cells carrying a CRE-luciferase reporter gene
# T2 sequence (P48546 22-466): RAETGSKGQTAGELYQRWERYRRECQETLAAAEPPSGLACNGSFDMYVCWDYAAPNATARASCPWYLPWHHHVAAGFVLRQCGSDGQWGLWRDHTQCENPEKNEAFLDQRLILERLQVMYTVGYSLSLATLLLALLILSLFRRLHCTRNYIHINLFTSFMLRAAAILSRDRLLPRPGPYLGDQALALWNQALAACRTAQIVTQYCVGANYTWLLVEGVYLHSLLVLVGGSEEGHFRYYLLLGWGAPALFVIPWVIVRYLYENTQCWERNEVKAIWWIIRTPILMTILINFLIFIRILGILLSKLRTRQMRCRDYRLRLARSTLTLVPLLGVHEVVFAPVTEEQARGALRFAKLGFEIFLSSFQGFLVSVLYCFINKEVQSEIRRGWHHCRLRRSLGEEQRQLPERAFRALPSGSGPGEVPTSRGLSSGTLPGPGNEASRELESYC
# Outline: as §1
# [3] = target: T3, hGLP1R (Homo sapiens, UniProt P43220); experiment: hGLP1R CreLuc reporter gene assay in 0.5% and 100% plasma
# T3 construct: expressed in transfected cells; host or cells: HEK-293 cells carrying a CRE-luciferase reporter gene
# T3 sequence (P43220 24-463): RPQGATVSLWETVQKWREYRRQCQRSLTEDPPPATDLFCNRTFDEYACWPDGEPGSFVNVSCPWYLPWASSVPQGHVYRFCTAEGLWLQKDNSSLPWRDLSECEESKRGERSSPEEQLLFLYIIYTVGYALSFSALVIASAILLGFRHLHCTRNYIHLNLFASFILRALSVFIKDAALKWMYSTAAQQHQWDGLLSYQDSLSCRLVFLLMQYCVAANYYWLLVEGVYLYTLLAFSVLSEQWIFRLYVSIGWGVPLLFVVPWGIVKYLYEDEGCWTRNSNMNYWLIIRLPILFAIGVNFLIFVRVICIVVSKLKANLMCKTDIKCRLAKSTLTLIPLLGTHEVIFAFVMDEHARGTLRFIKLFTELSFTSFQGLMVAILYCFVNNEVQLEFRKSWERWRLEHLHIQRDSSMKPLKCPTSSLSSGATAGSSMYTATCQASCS
# Outline: as §1
# [4] = 0.5% human plasma, read-out: hNPY2R 0.5% hP
# [5] = 0.5% human plasma, read-out: hGIPR 0.5% hP
# [6] = 100% human plasma, read-out: hGIPR 100% hP
# [7] = 0.5% human plasma, read-out: hGLP1R 0.5% hP
# [8] = 100% human plasma, read-out: hGLP1R 100% hP
# [9] = 100% human plasma, read-out: hNPY2R 100% hP
"EC50 [1, 4]","EC50 [2, 5]","EC50 [2, 6]","EC50 [3, 7]","EC50 [3, 8]","EC50 [1, 9]",Substance
53.4 nM,0.1 nM,0.62 nM,0.08 nM,1.13 nM,–,"H-Y[Aib]EGTFTSDYSI[Aib]LEKQAQ[Aib]AFVEWLIK([εLys-γGlu-γGlu-γGlu-γGlu-γGlu-γGlu-C20 diacid])GGPSSGAS[Aib]RHYYNWLTRQR[dY]-NH2 [Compound 74, Y-Aib-E-G-T-F-T-S-D-Y-S-I-Aib-L-E-K-Q-A-Q-Aib-A-F-V-E-W-L-I-K(1,3)-G-G-P-S-S-G-A-S-Aib-R-H-Y-Y-N-W-L-T-R-Q-R-DTyr-NH2.C20DA-gGlu-gGlu-gGlu-gGlu-gGlu-gGlu-eLys(1,2)]"
> 100 nM,0.09 nM,0.7 nM,0.07 nM,1.18 nM,–,"H-Y[Aib]EGTFTSDYSI[Aib]LEKQAQ[Aib]AFVEWLIK([εLys-γGlu-γGlu-γGlu-γGlu-γGlu-γGlu-C20 diacid])GGPSSGAS[Aib]RHYYNWLT[hArg]QR[dY]-NH2 [Compound 26, Y-Aib-E-G-T-F-T-S-D-Y-S-I-Aib-L-E-K-Q-A-Q-Aib-A-F-V-E-W-L-I-K(1,3)-G-G-P-S-S-G-A-S-Aib-R-H-Y-Y-N-W-L-T-hArg-Q-R-DTyr-NH2.C20DA-gGlu-gGlu-gGlu-gGlu-gGlu-gGlu-eLys(1,2)]"
16.2 nM,0.21 nM,1.72 nM,0.17 nM,–,53.1 nM,"H-Y[Aib]EGTFTSDYSI[Aib]LEKQAQ[Aib]AFVEWLIK([εLys-γGlu-γGlu-γGlu-γGlu-γGlu-γGlu-C20 diacid])GGPSSGATLRHYYNWLTRQRY-NH2 [Compound 91, Y-Aib-E-G-T-F-T-S-D-Y-S-I-Aib-L-E-K-Q-A-Q-Aib-A-F-V-E-W-L-I-K(1,3)-GGPSSGATLRHYYNWLTRQRY-NH2.C20DA-gGlu-gGlu-gGlu-gGlu-gGlu-gGlu-eLys(1,2)]"
12.5 nM,0.07 nM,1.25 nM,0.12 nM,–,36.8 nM,"H-Y[Aib]EGTFTSDYSI[Aib]LEKQAQ[Aib]AFVEWLIK([εLys-γGlu-γGlu-γGlu-γGlu-γGlu-γGlu-C20 diacid])GGPSSGES[Aib]RHYYNWLTRQRY-NH2 [Compound 49, Y-Aib-E-G-T-F-T-S-D-Y-S-I-Aib-L-E-K-Q-A-Q-Aib-A-F-V-E-W-L-I-K(1,3)-G-G-P-S-S-G-E-S-Aib-R-H-Y-Y-N-W-L-T-R-Q-R-Y-NH2.C20DA-gGlu-gGlu-gGlu-gGlu-gGlu-gGlu-eLys(1,2)]"
> 99.9 nM,0.35 nM,1.56 nM,0.1 nM,1.39 nM,563 nM,"H-Y[Aib]EGTFTSDYSI[Aib]LEKQAQ[Aib]AFVEWLIK([εLys-γGlu-γGlu-γGlu-γGlu-γGlu-γGlu-C20 diacid])GGPSSGIELRHFLNHLTRQRY-NH2 [Compound 2, Y-Aib-E-G-T-F-T-S-D-Y-S-I-Aib-L-E-K-Q-A-Q-Aib-A-F-V-E-W-L-I-K(1,3)-GGPSSGIELRHFLNHLTRQRY-NH2.C20DA-gGlu-gGlu-gGlu-gGlu-gGlu-gGlu-eLys(1,2)]"
16.7 nM,0.27 nM,–,0.13 nM,–,58.5 nM,"H-Y[Aib]EGTFTSDYSI[Aib]LEKQAQ[Aib]AFVEWLIK([εLys-γGlu-γGlu-γGlu-γGlu-γGlu-γGlu-C20 diacid])GGPSSGLSLRHYYNWLTRQRY-NH2 [Compound 107, Y-Aib-E-G-T-F-T-S-D-Y-S-I-Aib-L-E-K-Q-A-Q-Aib-A-F-V-E-W-L-I-K(1,3)-GGPSSGLSLRHYYNWLTRQRY-NH2.C20DA-gGlu-gGlu-gGlu-gGlu-gGlu-gGlu-eLys(1,2)]"
–,0.05 nM,1.14 nM,0.07 nM,2.12 nM,24.5 nM,"H-Y[Aib]EGTFTSDYSI[Aib]LEKQAQ[Aib]AFVEWLIK([εLys-γGlu-γGlu-γGlu-γGlu-γGlu-γGlu-C20 diacid])GGPSSGQS[Aib]RHYYNWLTRQRY-NH2 [Compound 44, Y-Aib-E-G-T-F-T-S-D-Y-S-I-Aib-L-E-K-Q-A-Q-Aib-A-F-V-E-W-L-I-K(1,3)-G-G-P-S-S-G-Q-S-Aib-R-H-Y-Y-N-W-L-T-R-Q-R-Y-NH2.C20DA-gGlu-gGlu-gGlu-gGlu-gGlu-gGlu-eLys(1,2)]"
–,0.19 nM,1.07 nM,0.14 nM,2.12 nM,44.8 nM,"H-Y[Aib]EGTFTSDYSI[Aib]LEKQAQ[Aib]AFVEWLIK([εLys-γGlu-γGlu-γGlu-γGlu-γGlu-γGlu-C20 diacid])GGPSSGVSLRHYYNWLTRQRY-NH2 [Compound 96, Y-Aib-E-G-T-F-T-S-D-Y-S-I-Aib-L-E-K-Q-A-Q-Aib-A-F-V-E-W-L-I-K(1,3)-GGPSSGVSLRHYYNWLTRQRY-NH2.C20DA-gGlu-gGlu-gGlu-gGlu-gGlu-gGlu-eLys(1,2)]"
–,–,0.7 nM,0.06 nM,–,17.8 nM,"H-Y[Aib]EGTFTSDYSI[Aib]LEKQAQ[Aib]AFVEWLIK([εLys-γGlu-γGlu-γGlu-γGlu-γGlu-γGlu-C20 diacid])GGPSSGVS[Aib]RHYYNWLTRQRY-NH2 [Compound 38, Y-Aib-E-G-T-F-T-S-D-Y-S-I-Aib-L-E-K-Q-A-Q-Aib-A-F-V-E-W-L-I-K(1,3)-G-G-P-S-S-G-V-S-Aib-R-H-Y-Y-N-W-L-T-R-Q-R-Y-NH2.C20DA-gGlu-gGlu-gGlu-gGlu-gGlu-gGlu-eLys(1,2)]"
20.6 nM,0.13 nM,0.75 nM,0.13 nM,–,–,"H-Y[Aib]EGTFTSDYSI[Aib]LEKQAQ[Aib]AFVEWLIK([εLys-γGlu-γGlu-γGlu-γGlu-γGlu-γGlu-C20 diacid])GGPSSPASLRHYYNWLTRQRY-NH2 [Compound 95, Y-Aib-E-G-T-F-T-S-D-Y-S-I-Aib-L-E-K-Q-A-Q-Aib-A-F-V-E-W-L-I-K(1,3)-GGPSSPASLRHYYNWLTRQRY-NH2.C20DA-gGlu-gGlu-gGlu-gGlu-gGlu-gGlu-eLys(1,2)]"
–,0.11 nM,1.61 nM,0.19 nM,4.76 nM,107 nM,"H-Y[Aib]EGTFTSDYSI[Aib]LEKQAQ[Aib]AFVEWLIK([εLys-γGlu-γGlu-γGlu-γGlu-γGlu-γGlu-C20 diacid])GGPSSPESLRHYYNWLTRQRY-NH2 [Compound 73, Y-Aib-E-G-T-F-T-S-D-Y-S-I-Aib-L-E-K-Q-A-Q-Aib-A-F-V-E-W-L-I-K(1,3)-GGPSSPESLRHYYNWLTRQRY-NH2.C20DA-gGlu-gGlu-gGlu-gGlu-gGlu-gGlu-eLys(1,2)]"
10.2 nM,0.07 nM,0.62 nM,0.06 nM,–,34.6 nM,"H-Y[Aib]EGTFTSDYSI[Aib]LEKQAQ[Aib]AFVEWLIK([εLys-γGlu-γGlu-γGlu-γGlu-γGlu-γGlu-C20 diacid])GGPSSPQSLRHYYNWLTRQRY-NH2 [Compound 41, Y-Aib-E-G-T-F-T-S-D-Y-S-I-Aib-L-E-K-Q-A-Q-Aib-A-F-V-E-W-L-I-K(1,3)-GGPSSPQSLRHYYNWLTRQRY-NH2.C20DA-gGlu-gGlu-gGlu-gGlu-gGlu-gGlu-eLys(1,2)]"
11.8 nM,0.12 nM,–,0.13 nM,–,–,"H-Y[Aib]EGTFTSDYSI[Aib]LEKQAQ[Aib]AFVEWLIK([εLys-γGlu-γGlu-γGlu-γGlu-γGlu-γGlu-C20 diacid])GGPSSYESLRHYYNWLTRQRY-NH2 [Compound 50, Y-Aib-E-G-T-F-T-S-D-Y-S-I-Aib-L-E-K-Q-A-Q-Aib-A-F-V-E-W-L-I-K(1,3)-GGPSSYESLRHYYNWLTRQRY-NH2.C20DA-gGlu-gGlu-gGlu-gGlu-gGlu-gGlu-eLys(1,2)]"
